Measured values reported in paper PMC2935147 (Journal of medicinal chemistry, 2010).
Counter-ions that a name gives are not always drawn. Like-named read-outs stand apart in the source and are kept apart here.

Assays:
human P2Y6 receptor [1] = target: T1, human P2Y6 receptor (Homo sapiens, UniProt Q15077); experiment: PLC activation; format: cell-based; conditions: for activity at the P2Y6 receptor: 1321N1 cells; for Pharmacological properties at hP2Y6 receptor: summary in words, Table 4
human P2Y6 receptor [2] = target: T1, human P2Y6 receptor; format: cell-based
[3] = Stability in acidic aqueous solution; format: physicochemical; conditions: HCl buffer (pH 1.2)
human P2Y14 receptor = conditions: read-out: EC50 at the P2Y14 receptor; cited from earlier work
human P2Y6 receptor [4] = target: T1, human P2Y6 receptor; conditions: cited from earlier work
human P2Y4 receptor = human P2Y4 receptor (Homo sapiens, UniProt P51582); conditions: read-out: EC50 hP2Y4; ref Kim et al.[26]; cited from earlier work
human P2Y2 receptor [5] = target: T2, human P2Y2 receptor (Homo sapiens, UniProt P41231); conditions: read-out: EC50 hP2Y2; ref Kim et al.[26]; cited from earlier work
human P2Y2 receptor [6] = target: T2, human P2Y2 receptor; experiment: PLC activation; format: cell-based
[7] = ratio of EC50 values, PLC activation

T1 sequence (Q15077 whole entry): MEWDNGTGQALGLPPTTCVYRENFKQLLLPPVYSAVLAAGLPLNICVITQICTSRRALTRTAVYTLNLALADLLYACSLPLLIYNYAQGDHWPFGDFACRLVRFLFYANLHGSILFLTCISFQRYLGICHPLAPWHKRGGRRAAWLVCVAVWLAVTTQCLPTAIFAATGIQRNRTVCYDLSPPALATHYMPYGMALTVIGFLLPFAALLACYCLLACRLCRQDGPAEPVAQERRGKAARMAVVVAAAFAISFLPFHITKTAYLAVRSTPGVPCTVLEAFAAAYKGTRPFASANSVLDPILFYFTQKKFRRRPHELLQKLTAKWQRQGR
T2 sequence (P41231 whole entry): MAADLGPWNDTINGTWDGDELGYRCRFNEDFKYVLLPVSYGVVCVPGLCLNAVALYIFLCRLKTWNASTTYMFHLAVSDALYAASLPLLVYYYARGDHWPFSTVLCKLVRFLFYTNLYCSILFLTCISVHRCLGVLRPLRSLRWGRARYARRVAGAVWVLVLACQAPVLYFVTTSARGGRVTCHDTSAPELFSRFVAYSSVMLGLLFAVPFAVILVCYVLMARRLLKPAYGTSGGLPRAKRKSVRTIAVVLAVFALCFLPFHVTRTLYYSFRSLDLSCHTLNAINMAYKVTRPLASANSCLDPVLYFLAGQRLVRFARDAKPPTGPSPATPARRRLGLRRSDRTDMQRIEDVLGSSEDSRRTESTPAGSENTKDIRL
Chain of human P2Y4 receptor (P51582 whole entry): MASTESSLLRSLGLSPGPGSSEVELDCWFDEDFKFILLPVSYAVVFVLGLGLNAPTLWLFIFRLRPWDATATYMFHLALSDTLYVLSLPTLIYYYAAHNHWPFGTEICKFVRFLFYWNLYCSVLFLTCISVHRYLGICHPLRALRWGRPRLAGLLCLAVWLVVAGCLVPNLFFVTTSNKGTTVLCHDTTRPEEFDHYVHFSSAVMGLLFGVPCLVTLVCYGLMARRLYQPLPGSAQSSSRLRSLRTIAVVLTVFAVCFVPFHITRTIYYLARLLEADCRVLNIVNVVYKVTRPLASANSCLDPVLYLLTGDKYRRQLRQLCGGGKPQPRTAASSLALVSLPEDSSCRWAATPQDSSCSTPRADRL

Structure (SMILES): CC(C)(C)O/N=c1/ccn([C@@H]2O[C@H](COP(=O)(O)OP(=O)(O)O)[C@@H](O)[C@H]2O)c(=O)[nH]1 [Compound 14, N^4-t-Butyloxycytidine-5′-diphosphate ammonium salt]
- EC50 (human P2Y6 receptor [1]): 2550 ± 700 nM

Structure (SMILES): CCN(CC)CC.CO/N=c1/ccn([C@@H]2O[C@H](COP(=O)(O)OP(=O)(O)OP(=O)(O)Oc3ccccc3)[C@@H](O)[C@H]2O)c(=O)[nH]1 [Compound 33, N^4-Methoxycytidine-5′-phenyl-triphosphate triethylammonium salt]
- activity at the P2Y6 receptor (human P2Y6 receptor [1]; PLC activation): weakly activated

Structure (SMILES): O=c1ccn([C@@H]2O[C@H](COP(=O)(O)OP(=O)(O)OP(=O)(O)OC[C@H]3O[C@@H](n4ccc(=O)[nH]c4=O)[C@H](O)[C@@H]3O)[C@@H](O)[C@H]2O)c(=O)[nH]1 [Compound 21, Up3U]
- Pharmacological properties at hP2Y6 receptor (human P2Y6 receptor [1]): moderately potent agonist, only 4-5 fold selective
- EC50 (human P2Y6 receptor [2]): 370 nM
- half-life at 0.2 mg/mL [3]: 218 h

Structure (SMILES): CCN(CC)CC.O=C(Cn1c(=O)ccn([C@@H]2O[C@H](COP(=O)(O)OP(=O)(O)OP(=O)(O)O[C@H]3O[C@H](CO)[C@@H](O)[C@H](O)[C@H]3O)[C@@H](O)[C@H]2O)c1=O)c1ccccc1 [Compound 30, 3-Phenacyluridine-5′-glucose-1′-triphosphate triethylammonium salt]
- activity at the P2Y6 receptor (human P2Y6 receptor [1]; PLC activation): only weakly active

Structure (SMILES): CCN(CC)CC.O=c1ccn([C@@H]2O[C@H](COP(=O)(O)CP(=O)(O)OP(=O)(O)OC[C@H]3O[C@@H](n4ccc(=O)[nH]c4=O)[C@H](O)[C@@H]3O)[C@@H](O)[C@H]2O)c(=O)[nH]1 [Compound 22, P^1,P^3-Di(uridine-5′-)α,β-methylenetriphosphate triethylammonium salt]
- reduction of P2Y6 receptor potency relative to Up3U 21 (human P2Y6 receptor [1]; ratio of EC50 values): 5 fold
- Pharmacological properties at hP2Y6 receptor (human P2Y6 receptor [1]): weak agonist, selective

Structure (SMILES): N.O=c1ccn([C@@]23C[C@H]2[C@H](COP(=O)(O)OP(=O)(O)O)[C@@H](O)[C@H]3O)c(=O)[nH]1 [Compound 7, (S)-Methanocarba-uridine-5′-diphosphate triethylammonium salt]
- gain of potency at the P2Y6 receptor over (S)-methanocarba-2′-deoxy-UDP 6 (human P2Y6 receptor [1]; ratio of EC50 values): 5 fold
- gain of potency at the P2Y6 receptor over UDP 1 (human P2Y6 receptor [1]; ratio of EC50 values): 7 fold

Structure (SMILES): CCN(CC)CC.O=c1ccn([C@@H]2O[C@H](COP(=O)(O)OP(=O)(O)OP(=O)(O)Oc3ccccc3)[C@@H](O)[C@H]2O)c(=O)[nH]1 [Compound 26, P^1-Uridine-5′-P^3-phenyl-triphosphate triethylammonium salt]
- Pharmacological properties at hP2Y6 receptor (human P2Y6 receptor [1]): weak agonist, selective

Structure (SMILES): CCN(CC)CC.O=c1ccn([C@@H]2O[C@H](COP(=O)(O)CP(=O)(O)OP(=O)(O)O[C@H]3O[C@H](CO)[C@@H](O)[C@H](O)[C@H]3O)[C@@H](O)[C@H]2O)c(=O)[nH]1 [Compound 31, Uridine-5′-glucose-1′-α,β-methylenetriphosphate triethylammonium salt]
- activity at the P2Y6 receptor (human P2Y6 receptor [1]; PLC activation): only weakly active
- Pharmacological properties at hP2Y6 receptor (human P2Y6 receptor [1]): ~inactive

Structure (SMILES): Nc1ccn([C@@H]2O[C@H](COP(=O)(O)OP(=O)(O)O)[C@@H](O)[C@H]2O)c(=O)n1 [CDP]
- EC50 (human P2Y14 receptor): > 10000 nM
- activity at the human P2Y6 receptor (human P2Y6 receptor [4]): nearly inactive

Structure (SMILES): CCN(CC)CC.O=c1ccn([C@@H]2O[C@H](COP(=O)(O)OP(=O)(O)OP(=O)(O)OC3CCCCC3)[C@@H](O)[C@H]2O)c(=O)[nH]1 [Compound 25, P^1-Uridine-5′-P^3-cyclohexyl-triphosphate triethylammonium salt]
- Pharmacological properties at hP2Y6 receptor (human P2Y6 receptor [1]): weak agonist, nonselective vs. P2Y2 receptor

Structure (SMILES): O=c1ccn(C2C(O)C(O)C3(COP(=O)(O)OP(=O)(O)OP(=O)(O)O)CC23)c(=O)[nH]1 (stereo not drawn) [Compound 19, (N)-methanocarba UTP]
- EC50 (human P2Y4 receptor): 85 ± 5 nM
- EC50 (human P2Y2 receptor [5]): 16 ± 7 nM
- EC50 (human P2Y6 receptor [4]; read-out: EC50 hP2Y6, NE = no effect at 10 μM, ref Kim et al.[26]): > 10000 nM

Structure (SMILES): CCN(CC)CC.CO/N=c1/ccn([C@@H]2O[C@H](COP(=O)(O)OP(=O)(O)O)[C@@H](O)[C@H]2O)c(=O)[nH]1 [Compound 12, N^4-Methoxycytidine-5′-diphosphate ammonium salt]
- selectivity P2Y6 versus P2Y14 receptor (human P2Y6 receptor [1]; PLC via P2Y6 versus inhibition of cyclic AMP accumulation in HEK-293 cells expressing hP2Y14): 47 fold
- gain of potency at the P2Y6 receptor over UDP 1 (human P2Y6 receptor [1]; ratio of EC50 values): 4 fold
- selectivity P2Y6 versus P2Y2 receptor (human P2Y6 receptor [1]; [7]): 51 fold
- Pharmacological properties at hP2Y6 receptor (human P2Y6 receptor [1]): selective, potent agonist

Structure (SMILES): CCN(CC)CC.CO/N=c1\ccn([C@@H]2O[C@H](COP(=O)(O)OP(=O)(O)OP(=O)(O)O)[C@@H](O)[C@H]2O)c(=O)[nH]1 [Compound 20, N^4-Methoxycytidine-5′-triphosphate ammonium salt]
- gain of potency at the P2Y6 receptor over UTP 17 (human P2Y6 receptor [1]; ratio of EC50 values): > 100 fold

Structure (SMILES): CCN(CC)CC.O=c1ccn([C@@H]2O[C@H](COP(=O)(O)OP(=O)(O)OP(=O)(O)O[C@H]3O[C@H](CO)[C@@H](O)[C@H](O)[C@H]3O)[C@@H](O)[C@H]2O)c(=O)[nH]1 [Compound 27, P^1-Uridine-5′-P^3-[1]glucose-1′-triphosphate triethylammonium salt]
- activity at the P2Y6 receptor (human P2Y6 receptor [1]; PLC activation): only weakly activated
- activity at the P2Y6 receptor (human P2Y6 receptor [1]; PLC activation, listed as UTP-glucose): inactive
- Pharmacological properties at hP2Y6 receptor (human P2Y6 receptor [1]): ~inactive

Structure (SMILES): CCN(CC)CC.CO/N=c1/ccn([C@@H]2O[C@H](COP(=O)(O)OP(=O)(O)OP(=O)(O)O[C@H]3O[C@H](CO)[C@@H](O)[C@H](O)[C@H]3O)[C@@H](O)[C@H]2O)c(=O)[nH]1 [Compound 32, N^4-Methoxycytidine-5′-glucose-1′-triphosphate triethylammonium salt]
- selectivity P2Y6 versus P2Y2 receptor (human P2Y6 receptor [1]; [7]): > 100 fold
- selectivity P2Y6 versus P2Y4 receptor (human P2Y6 receptor [1]; [7]): > 100 fold

Structure (SMILES): O=c1ccn([C@@H]2O[C@H](COP(=O)(O)OP(=O)(O)OP(=O)(O)O)[C@@H](O)[C@H]2O)c(=O)[nH]1 [Compound 17, uridine-5′-triphosphate, reference compound]
- Pharmacological properties at hP2Y6 receptor (human P2Y6 receptor [1]): ~inactive

Structure (SMILES): CO/N=c1/ccn([C@@H]2O[C@H](COP(=O)(O)CP(=O)(O)O)[C@@H](O)[C@H]2O)c(=O)[nH]1 [Compound 16, N^4-Methoxycytidine-5′-α,β-methylenediphosphate triethylammonium salt]
- EC50 (human P2Y6 receptor [1]): 678 ± 18 nM
- EC50 (human P2Y2 receptor [6]): > 10000 nM

Structure (SMILES): CCN(CC)CC.O=c1ccn([C@@]23C[C@H]2[C@@H]2COP(=O)(O)OP(=O)(O)O[C@H]2[C@H]3O)c(=O)[nH]1 [Compound 9, (S)-Methanocarba-uridine-3′, 5′-cyclic diphosphate triethylammonium salt]
- activity at the P2Y6 receptor (human P2Y6 receptor [1]; PLC activation): inactive

Structure (SMILES): CCO/N=c1/ccn([C@@H]2O[C@H](COP(=O)(O)OP(=O)(O)O)[C@@H](O)[C@H]2O)c(=O)[nH]1 [Compound 13, N^4-Ethoxycytidine-5′-diphosphate ammonium salt]
- EC50 (human P2Y6 receptor [1]): 104 ± 23 nM

Structure (SMILES): O=c1ccn([C@@H]2O[C@H](COP(=O)(O)OP(=O)(O)O)[C@@H](O)[C@H]2O)c(=O)[nH]1 [Compound 1, uridine-5′-diphosphate]
- EC50 (human P2Y6 receptor [2]): 200 nM

Structure (SMILES): O=c1[nH]c(=O)n([C@@H]2O[C@H](COP(=O)(O)OP(=O)(O)O)[C@@H](O)[C@H]2O)cc1I [Compound 3, 5-iodo-UDP]
- EC50 (human P2Y6 receptor [2]): 50 nM

Structure (SMILES): CCN(CC)CC.CO/N=c1/ccn([C@@H]2O[C@H](COP(=O)(O)OP(=O)(O)OP(=O)(O)OC[C@H]3O[C@@H](n4ccc(=O)[nH]c4=O)[C@H](O)[C@@H]3O)[C@@H](O)[C@H]2O)c(=O)[nH]1 [Compound 23, N^4-methoxy-Cp3U]
- enhancement of P2Y6 receptor potency relative to Up3U 21 (human P2Y6 receptor [1]; ratio of EC50 values): 22 fold
- Pharmacological properties at hP2Y6 receptor (human P2Y6 receptor [1]): selective, potent agonist
- EC50 (human P2Y6 receptor [2]): 83 nM

Structure (SMILES): O=c1ccn([C@H]2[C@H](O)[C@H](O)[C@@]3(COP(=O)(O)OP(=O)(O)O)C[C@H]23)c(=O)[nH]1 [Compound 8, (N)-methanocarba UDP]
- activity at the P2Y6 receptor (human P2Y6 receptor [4]; previously found): inactive

Structure (SMILES): CCN(CC)CC.O=c1[nH]/c(=N\OCc2ccccc2)ccn1[C@@H]1O[C@H](COP(=O)(O)OP(=O)(O)O)[C@@H](O)[C@H]1O [Compound 15, N^4-Benzyloxycytidine-5′-diphosphate ammonium salt]
- Pharmacological properties at hP2Y6 receptor (human P2Y6 receptor [1]): selective, potent agonist

Structure (SMILES): CONc1ccn([C@@H]2O[C@H](COP(=O)(O)OP(=O)(O)OP(=O)(O)OC[C@H]3O[C@@H](n4ccc(NOC)nc4=O)[C@H](O)[C@@H]3O)[C@@H](O)[C@H]2O)c(=O)n1 [Compound 24, N^4-OMe-Cp3(N^4-OMe)C]
- EC50 (human P2Y6 receptor [2]): 630 nM
